The test system of series [1] is B16-F10 (murine melanoma) cells. Nature of the series: in vitro cytotoxicity against B16-F10 (neutral red staining, 72 hours). Type of series: cell-based. The settings on record: Mus musculus. On the procedure: (§1) BU-3862T and diacetyl-, dihydro- and tetrahydro-BU-3862T were tested for in vitro cytotoxicity against several murine and human tumor cell lines and/or for in vivo antitumor activity in mice. […] B16-F10 (murine melanoma), P388 (murine leukemia), L1210 (murine leukemia) and Moser (human colorectal carcinoma) cells were grown to the logarithmic phase in enriched Eagle minimum essential medium (MEM) supplemented with fetal calf serum (FCS, 10%) and kanamycin (60 mcg/ml), and HCT-116 (human colon carcinoma) cells in Maccoy's 5A medium supplemented with FCS (10%), penicillin (100 u/ml) and streptomycin (100 mcg/ml), harvested and inoculated into wells of the 96- or 24-well tissue culture plate with test materials at the concentrations of 1.5×10^5, 1.2×10^4,1.2×10^4, 2.5×10^5 and 3.0×10^5 cells/ml, respectively. They were incubated at 37° C. in humidified atmosphere of 5% CO2 and 95% air for 72 hours. The cytotoxic activities against B16-F10, Moser and HCT-116 cells were colorimetrically determined at 540 nm after staining viable cells with 0.006% neutral red solution. On the other hand, the cytotoxic activities against P388 and L1210 cells were determined by counting the number of viable cells.

Series [2] concerns P388 (murine leukemia) cells. In words: in vitro cytotoxicity against P388 (viable cell count, 72 hours). The settings on record: Mus musculus; P388, 72 hours. Type of series: cell-based. On the procedure:
as §1

The subject of series [3] is L1210 (murine leukemia) cells. Nature of the series: in vitro cytotoxicity against L1210 (viable cell count, 72 hours). Type of series: cell-based. The conditions noted are these: Mus musculus; L1210, 72 hours. As for the experimental part: as §1
The test system of series [4] is HCT-116 (human colon carcinoma) cells. In words: in vitro cytotoxicity against HCT-116 (neutral red staining, 72 hours). It counts as cell-based. As for the experimental part:
as §1

Series [5] has as its system Moser (human colorectal carcinoma) cells. Nature of the series: in vitro cytotoxicity against Moser (neutral red staining, 72 hours). Type of series: cell-based. As for the experimental part:
as §1

Series [6] deals with DNA synthesis in B16-F10 melanoma cells. In words: inhibition of DNA synthesis in cultured B16-F10 melanoma cells. Type of series: cell-based, murine.
Series [7] deals with RNA synthesis in B16-F10 melanoma cells. Nature of the series: inhibition of RNA synthesis in cultured B16-F10 melanoma cells. The settings on record: Mus musculus, 14C-uridine incorporation, 4 hours + 60 min. Type of series: cell-based, murine.
Series [8] has as its system protein synthesis in B16-F10 melanoma cells. Nature of the series: inhibition of protein synthesis in cultured B16-F10 melanoma cells. It counts as cell-based, murine.
A short description of a further series: solubility. It counts as physicochemical.
The next series relates to B16 melanoma. The settings on record: for T/C: Table 6, QD × 9; for inhibitory activity against experimental animal tumor systems: e.g. B16 melanoma in mice; for antitumor efficacy against B16 melanoma, in words: ip; for minimum effective dose relative to the parent compound: versus BU-3862T.
The test system of another series is P388 leukemia. The conditions noted are these: at the doses tested.
Series [9] can be described thus: biological activity of BU-3862T derivatives.
Series [10] deals with murine and human tumor cell lines. On the procedure: as §1
The mark [11] stands for this setting: B16-F10, 72 hours, read-out: IC50.
Setting [12] is: HCT-116, 72 hours, read-out: IC50.
The mark [13] stands for this setting: Moser, 72 hours, read-out: IC50.

In brackets after ≈: the same amount, converted by molar mass. Where two headings read alike, the source gives them in different places.

Protocol for B16 melanoma: (§2) In vivo antitumor activities of BU-3862T and the diacetyl and dihydro derivatives were determined in tumor-bearing BDF1 or CDF1 mice. Male BDF1 mice were intraperitoneally inoculated with 0.5 ml of 10% melanotic melanoma B16 brei and female CDF1 mice were also intraperitoneally inoculated with 0.4 ml of diluted ascitic fluid containing 10^5 lymphoid leukemia L1210 cells or 10^6 lymphocytic leukemia P388 cells.
Protocol for L1210 leukemia: as §2
Protocol for P388 leukemia: as §2

For the compound `C=C(C)CC(NC(=O)[C@H](CO)NC(=O)CCCCC(C)C)C(=O)C1(CO)CO1` (some centres unmarked) [BU-3862T], the IC50 (in general, the midpoint of a concentration-inhibition curve) came out at 0.0017 µg/mL (≈ 0.00427 µM) in [1] (setting [11]); 0.031 µg/mL (≈ 0.0778 µM) in series [2]; 0.01 µg/mL (≈ 0.0251 µM) in series [3]; 0.0097 µg/mL (≈ 0.0243 µM) in [4] (setting [12]); 0.016 µg/mL (≈ 0.0402 µM) in series [5] (setting [13]); 0.1 µg/mL in series [6] (Mus musculus, B16-F10, 3H-thymidine incorporation, 3.5 hours + 30 min). For the same compound, the IC50 in [7] turned out to be 11 µg/mL; in series [8] (Mus musculus, B16-F10, 3H-leucine incorporation, 4 hours + 60 min), 0.06 µg/mL. Besides, in [6] (DNA versus RNA synthesis), the “potency on DNA synthesis relative to that on RNA synthesis in terms of IC50 value” is “over 100 times”. The “potency on protein synthesis relative to that on RNA synthesis in terms of IC50 value” in [8] (protein versus RNA synthesis) is on record as “over 100 times”. Also, the solubility result is “practically insoluble” in the series “solubility” (in benzene and other organic solvents); “readily soluble” in “solubility” (in dimethyl sulfoxide, dimethylformamide, methanol, ethanol, ethyl acetate and chloroform); “practically insoluble” in “solubility” (in water). In addition, the “potency (minimum effective dose) relative to mitomycin C” value in the series on B16 melanoma (Q4D × 3, ip) is “the same as that of mitomycin C”. Besides, the “chemotherapeutic index (ratio of optimal dose to minimum effective dose), intermittent versus consecutive dosing” value in the series on B16 melanoma (Q4D × 3 versus QD × 9) is “broader therapeutic range”. Also, the “maximum T/C value, intermittent versus consecutive dosing” value in the series on B16 melanoma (Q4D × 3 versus QD × 9) is listed as “better antitumor activity”. Also, the T/C – broadly, the result in the treated group divided by that in the control group, in per cent – in the series on B16 melanoma (0.13 mg/kg/day ip) is given as 123%; with B16 melanoma (0.25 mg/kg/day ip) it was 133%; in the series with B16 melanoma (0.5 mg/kg/day ip), 133%; in the series on B16 melanoma (0.63 mg/kg/day (so in the source) ip), 113%; in the series with B16 melanoma (1.0 mg/kg/day ip), 97%; in the series on B16 melanoma (2.0 mg/kg/day ip), “Tox”. The T/C is recorded as 119% with L1210 leukemia (0.25 mg/kg/day ip, Q3D × 3); 125% in the series with L1210 leukemia (1.0 mg/kg/day ip, Q3D × 3); 144% in the series on L1210 leukemia (2.0 mg/kg/day ip, Q3D × 3); “Tox” with L1210 leukemia (4.0 mg/kg/day ip, Q3D × 3). Moreover, the “inhibitory activity against experimental animal tumor systems” value (shortened to “inhibitory activity”) in the series on B16 melanoma is reported as “exhibit inhibitory activity”. In addition, the “antitumor efficacy against B16 melanoma, in words” value (“antitumor efficacy” for short) in the series on B16 melanoma is on record as “excellent therapeutic efficacy against B16 melanoma”. Further, the “maximum T/C value” with L1210 leukemia (L1210 leukemia, ip) amounted to 145%. For the same compound, the “antitumor activity against L1210 leukemia, in words” value with L1210 leukemia (ip) is “moderate antitumor activity”. Besides, the “prolongation of lifespan in P388 leukemia-bearing mice” value in the series with P388 leukemia is “no significant prolongation of lifespan”.
On to `C=C(C)CC(NC(=O)[C@H](COC(C)=O)NC(=O)CCCCC(C)C)C(=O)C1(COC(C)=O)CO1` (some centres unmarked) [Diacetyl-BU-3862T], for which the IC50 in series [1] (setting [11]) turned out to be 0.003 µg/mL (≈ 0.00622 µM); in series [4] (setting [12]), 0.017 µg/mL (≈ 0.0352 µM); in series [5] (setting [13]) it was 0.044 µg/mL (≈ 0.0912 µM). In addition, the “biological activity, in words” value in series [9] was “retained the biological activity”. For the same compound, in series [10], the “cytotoxic potency relative to BU-3862T” value is “approximately half those of BU-3862T”. Further, the “minimum effective dose relative to the parent compound” value with B16 melanoma (Q4D × 3, ip) is given as “approximately ten times less active than the parent compound”. Moreover, in the series with B16 melanoma, the “inhibitory activity” value was “exhibit inhibitory activity”. Besides, in the series on B16 melanoma, the “antitumor efficacy” value is given as “significant anti-B16 melanoma activity”.
On to `CC(C)CCCCC(=O)N[C@@H](CO)C(=O)NC(CC(C)C)C(=O)C1(CO)CO1` (some centres unmarked) [Dihydro-BU-3862T], for which the IC50 in [1] (setting [11]) worked out at 0.0032 µg/mL (≈ 0.00799 µM); in series [4] (setting [12]), 0.013 µg/mL (≈ 0.0325 µM); in series [5] (setting [13]), 0.038 µg/mL (≈ 0.0949 µM). Besides, the “biological activity, in words” value in [9] is on record as “retained the biological activity”. Besides, in series [10], the “cytotoxic potency relative to BU-3862T” value is “approximately half those of BU-3862T”. For the same compound, the “minimum effective dose relative to the parent compound” value with B16 melanoma (Q4D × 3, ip) was “approximately ten times less active than the parent compound”. Besides, the “inhibitory activity” value in the series on B16 melanoma is listed as “exhibit inhibitory activity”. The “antitumor efficacy” value in the series with B16 melanoma is recorded as “significant anti-B16 melanoma activity”.
Turning to `CO[C@@]12[C@H](COC(N)=O)C3=C(C(=O)C(C)=C(N)C3=O)N1C[C@@H]1N[C@@H]12` [Mitomycin C, reference compound], the IC50 in series [1] (B16-F10, 72 h) worked out at 0.5 µg/mL (≈ 1.5 µM); in series [4] (HCT-116, 72 h), 0.8 µg/mL (≈ 2.39 µM); in series [5] (72 h), 1.2 µg/mL (≈ 3.59 µM). In addition, the T/C in the series on L1210 leukemia (0.25 mg/kg/day ip, QD × 3) was 125%; in the series on L1210 leukemia (0.5 mg/kg/day ip, QD × 3) it was 131%; with L1210 leukemia (1.0 mg/kg/day ip, QD × 3), 138%; in the series with L1210 leukemia (2.0 mg/kg/day ip, QD × 3), 163%.
Consider `CC(C)CCCCC(=O)N[C@@H](CO)C(=O)NC(CC(C)C)C(=O)C(CO)CO` (some centres unmarked) [Tetrahydro-BU-3862T], for which the IC50 in series [1] (setting [11]) is 0.53 µg/mL (≈ 1.32 µM); in series [4] (setting [12]) it was more than 1 µg/mL; in [5] (setting [13]), more than 1 µg/mL. Besides, the “biological activity, in words” value in [9] is “devoid of the activity”. The “cytotoxic activity compared with BU-3862T, diacetyl and dihydro derivatives” value in [10] is “significantly less active than the above compounds”.
